From US10030089B2, “Sugar free, statistical copolymers made from at least three monomers” (REGENTS OF THE UNIVERSITY OF MINNESOTA, priority 2013, dated 2018)

Experiment: Phenytoin dissolution control
Assay type: physicochemical
Protocol: Probucol and phenytoin concentrations were quantified using a Agilent 1260 Infinity Quaternary HPLC equipped. The HPLC consisted of a reversed-phase EC-C18 column (Poroshell 120, 4.6×50 mm, 2.7 μm, Agilent, USA). The mobile phase was acetonitrile:water 96:4 for probucol and acetonitrile:water 40:60 for phenytoin, and the flow rate was 1.0 mL/min. A 10 μL aliquot of sample was injected, and the column effluent was detected at 241 nm for probucol (eluted at 2.90 min) and 225 nm for phenytoin (eluted at 1.40 min) with a UV detector (1260 Infinity Multiple Wavelength Detector, Agilent). The standard curve linearity was verified from 0.1 to 1000 μg/mL with an r^2 value of at least 0.999.

- Concentration (Time (s) 0): 0 ng/mL
- Concentration (Time (s) 4): 38000 ng/mL
- Concentration (Time (s) 10): 46000 ng/mL
- Concentration (Time (s) 20): 45000 ng/mL
- Concentration (Time (s) 40): 48000 ng/mL
- Concentration (Time (s) 90): 51000 ng/mL
- Concentration (Time (s) 180): 45000 ng/mL
- Concentration (Time (s) 360): 48000 ng/mL
Structure (SMILES): O=C1NC(=O)C(c2ccccc2)(c2ccccc2)N1 [Phenytoin, phenytoin]
